Source: ChEMBL document CHEMBL4396938, “New amide linked dimeric 1,2,3-triazoles bearing aryloxy scaffolds as a potent antiproliferative agents and EGFR tyrosine kinase phosphorylation inhibitors” (Bioorg Med Chem Lett, 2019)
pIC50: −log10 of the molar value.

Tests used:
MCF7 [1] = assay: Antiproliferative activity against human MCF7 cells assessed as growth inhibition at 1 uM incubated for 24 hrs by MTT assay (reference value: 0%); type: functional; settings: MCF7, 24 h, read-out: GI
MCF7 [2] = assay: Antiproliferative activity against human MCF7 cells assessed as growth inhibition at 10 uM incubated for 24 hrs by MTT assay (reference value: 0%); type: functional; settings: MCF7, 24 h, read-out: GI
MCF7 [3] = assay: Antiproliferative activity against human MCF7 cells assessed as growth inhibition at 0.1 uM incubated for 24 hrs by MTT assay (reference value: 0%); type: functional; settings: MCF7, 24 h, read-out: GI
A549 [4] = assay: Antiproliferative activity against human A549 cells assessed as growth inhibition at 10 uM incubated for 24 hrs by MTT assay (reference value: 0%); type: functional; settings: A549, 24 h, read-out: GI
A549 [5] = assay: Antiproliferative activity against human A549 cells assessed as growth inhibition at 0.1 uM incubated for 24 hrs by MTT assay (reference value: 0%); type: functional; settings: A549, 24 h, read-out: GI
A549 [6] = assay: Antiproliferative activity against human A549 cells assessed as growth inhibition at 1 uM incubated for 24 hrs by MTT assay (reference value: 0%); type: functional; settings: A549, 24 h, read-out: GI
A549 [7] = assay: Antiproliferative activity against human A549 cells assessed as reduction in cell growth incubated for 24 hrs by MTT assay; type: functional, cell-based; settings: A549, 24 h
[8] = biological target: Epidermal growth factor receptor (Homo sapiens) (UniProt P00533); settings: MCF7, at 10 µM
Description: Inhibition of EGFR in human MCF7 cells assessed as reduction in EGFR phosphorylation at 10 uM incubated for 48 hrs by Western blot analysis

MCF7 [9] = assay: Antiproliferative activity against human MCF7 cells assessed as reduction in cell growth incubated for 24 hrs by MTT assay; type: functional, cell-based; settings: MCF7, 24 h
MCF-10A = assay: Cytotoxicity against human MCF10A cells assessed as reduction in cell viability incubated for 24 hrs by MTT assay; type: ADME, cell-based
[10] = Selectivity index, ratio of cytotoxic IC50 for human MCF10A cells to antiproliferative IC50 for human MCF7 cells; type: toxicity; settings: MCF10A cells and MCF7 cells, read-out: Ratio IC50

Chain of Epidermal growth factor receptor (Homo sapiens) (P00533 whole entry): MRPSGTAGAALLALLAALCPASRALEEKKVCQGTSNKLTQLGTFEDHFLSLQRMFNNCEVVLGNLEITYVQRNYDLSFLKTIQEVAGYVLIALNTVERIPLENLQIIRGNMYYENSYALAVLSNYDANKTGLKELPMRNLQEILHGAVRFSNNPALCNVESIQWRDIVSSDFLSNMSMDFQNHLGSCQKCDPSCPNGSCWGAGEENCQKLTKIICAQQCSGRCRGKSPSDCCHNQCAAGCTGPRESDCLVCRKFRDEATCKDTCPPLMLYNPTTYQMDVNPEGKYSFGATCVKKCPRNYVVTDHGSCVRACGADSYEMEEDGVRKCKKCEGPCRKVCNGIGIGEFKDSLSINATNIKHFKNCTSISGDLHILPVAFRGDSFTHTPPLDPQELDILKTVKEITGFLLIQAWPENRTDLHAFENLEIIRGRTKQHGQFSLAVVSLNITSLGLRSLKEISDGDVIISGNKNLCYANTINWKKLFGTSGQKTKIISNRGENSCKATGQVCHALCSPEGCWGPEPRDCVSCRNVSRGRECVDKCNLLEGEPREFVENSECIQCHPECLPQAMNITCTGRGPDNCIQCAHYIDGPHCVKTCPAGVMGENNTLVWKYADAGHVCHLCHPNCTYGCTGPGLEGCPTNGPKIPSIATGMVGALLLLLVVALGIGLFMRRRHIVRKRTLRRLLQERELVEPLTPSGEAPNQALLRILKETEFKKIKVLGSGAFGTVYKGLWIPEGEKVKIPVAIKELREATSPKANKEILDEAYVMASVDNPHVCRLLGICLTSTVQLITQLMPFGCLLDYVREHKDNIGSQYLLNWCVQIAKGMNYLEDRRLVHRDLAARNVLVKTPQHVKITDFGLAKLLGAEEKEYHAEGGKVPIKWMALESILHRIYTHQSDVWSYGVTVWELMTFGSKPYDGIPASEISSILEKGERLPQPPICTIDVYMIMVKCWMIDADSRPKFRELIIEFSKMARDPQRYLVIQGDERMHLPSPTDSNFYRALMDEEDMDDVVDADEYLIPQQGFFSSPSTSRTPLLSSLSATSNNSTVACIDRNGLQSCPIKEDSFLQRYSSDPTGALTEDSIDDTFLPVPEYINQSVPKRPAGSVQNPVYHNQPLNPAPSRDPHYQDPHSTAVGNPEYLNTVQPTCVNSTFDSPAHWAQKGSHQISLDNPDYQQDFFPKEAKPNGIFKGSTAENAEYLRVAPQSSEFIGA

Compound | inhibition of growth at 1 µM (MCF7 [1]) [%] | inhibition of growth at 10 µM (MCF7 [2]) [%] | inhibition of growth at 0.1 µM (MCF7 [3]) [%] | inhibition of growth at 10 µM (A549 [4]) [%] | inhibition of growth at 0.1 µM (A549 [5]) [%] | inhibition of growth at 1 µM (A549 [6]) [%] | pIC50 (A549 [7]) | inhibition [8] [%] | pIC50 (MCF7 [9]) | pIC50 (MCF-10A) | selectivity ratio [10]
O=C(Cn1cc(COc2cccc(OCc3cn(CC(=O)Nc4ccccc4)nn3)c2)nn1)Nc1ccccc1 | 13.8 | 22.1 | 14.5 | 69.2 | 11.4 | 10.8 | 5.15 | – | – | – | –
Cc1ccc(NC(=O)Cn2cc(COc3cccc(OCc4cn(CC(=O)Nc5ccc(C)cc5)nn4)c3)nn2)cc1 | 9.47 | 82.6 | 5.16 | 34.1 | 0 | 7.51 | – | 76.9 | 5.22 | – | –
O=C(Cn1cc(COc2ccccc2OCc2cn(CC(=O)Nc3ccccc3)nn2)nn1)Nc1ccccc1 | 12.1 | 12.9 | 11.3 | 44.3 | 0 | 6.8 | – | – | – | – | –
O=C(Cn1cc(COc2cccc(OCc3cn(CC(=O)Nc4ccc(Cl)cc4)nn3)c2)nn1)Nc1ccc(Cl)cc1 | 31.7 | 64 | 16.2 | 3.36 | 1.16 | -0.17 | – | 32.6 | 5.21 | – | –
COc1ccc(NC(=O)Cn2cc(COc3ccccc3OCc3cn(CC(=O)Nc4ccc(OC)cc4)nn3)nn2)cc1 | 24 | 96 | 18.4 | 15.4 | 5.57 | 6.56 | – | 88.3 | 5.38 | 4.48 | 8
O=C(Cn1cc(COc2ccccc2OCc2cn(CC(=O)Nc3ccc([N+](=O)[O-])cc3)nn2)nn1)Nc1ccc([N+](=O)[O-])cc1 | 15 | 12.7 | 14.2 | 11.8 | 5.9 | 10.7 | – | – | – | – | –
Cc1ccc(NC(=O)Cn2cc(COc3ccccc3OCc3cn(CC(=O)Nc4ccc(C)cc4)nn3)nn2)cc1 | 25.7 | 63.8 | 25.4 | 86.6 | 8.92 | 12.8 | 5.25 | 28.2 | 5.17 | – | –
O=C(Cn1cc(COc2ccccc2OCc2cn(CC(=O)Nc3ccc(Cl)cc3)nn2)nn1)Nc1ccc(Cl)cc1 | 42.9 | 79.9 | 39 | 73.5 | 1.89 | 25.4 | 5.25 | 72.7 | 5.55 | 4.85 | 5
O=C(Cn1cc(COc2cccc(OCc3cn(CC(=O)Nc4ccc([N+](=O)[O-])cc4)nn3)c2)nn1)Nc1ccc([N+](=O)[O-])cc1 | 4.58 | 5.44 | 4.96 | 98.6 | 25.5 | 42.4 | 5.65 | – | – | – | –
COc1ccc(NC(=O)Cn2cc(COc3cccc(OCc4cn(CC(=O)Nc5ccc(OC)cc5)nn4)c3)nn2)cc1 | 11.1 | 33.3 | 11.9 | 94.5 | 7.26 | 42.8 | 5.63 | – | – | – | –
